This passage reports IC50 results from patent publication US9932350B2, “Inhibitors of IRAK4 activity” (MERCK SHARP & DOHME CORP., priority 2014, dated 2018).

Broadly, the IC50 is the concentration that gives 50% inhibition. The low end stands for greater potency in that assay, the high end for weaker potency in that assay.

Structures are written as SMILES.

This experiment concerns the target GST tagged IRAK4 (Homo sapiens (Human), UniProt Q9NWZ3). Put plainly: IRAK4 Kinase Assay (IMAP fluorescence polarization). It counts as biochemical. The conditions noted are these: 0.5 nM GST tagged IRAK4, 100 μM ATP, 30 minutes at 25° C. How it is done: The kinase activity of IRAK4 is determined by its ability to catalyze the phosphorylation of a fluorescent polypeptide substrate. The extent of phosphorylation is measured using the IMAP technology (Molecular Devices) where the phosphorylated fluorescent substrate binds to the large M(III)-based nanoparticles which reduces the rotational speed of the substrate and thus increases its fluorescent polarization (FP).
20 μL reaction mixture contains 10 mM TriHCl, pH 7.2, 0.5 nM GST tagged IRAK4 (SignalChem), 100 nM fluorescent peptide substrate (RP7030, Molecular Devices), 100 μM ATP, 1 mM DDT, 1 mM MgCl2, and 0.01% Tween 20. The reaction is initiated by the addition of ATP. After incubation for 30 minutes at 25° C., 60 μL of Progressive IMAP Reagent (Molecular Devices) is added to stop the reaction. Change in RP7030's FP is determined by a FP reader (Analyst HT, LJL BioSystems).
In general terms: Polarisation of emitted light reports the rotation of a fluorescent probe.

Chain of GST tagged IRAK4 (Q9NWZ3 whole entry): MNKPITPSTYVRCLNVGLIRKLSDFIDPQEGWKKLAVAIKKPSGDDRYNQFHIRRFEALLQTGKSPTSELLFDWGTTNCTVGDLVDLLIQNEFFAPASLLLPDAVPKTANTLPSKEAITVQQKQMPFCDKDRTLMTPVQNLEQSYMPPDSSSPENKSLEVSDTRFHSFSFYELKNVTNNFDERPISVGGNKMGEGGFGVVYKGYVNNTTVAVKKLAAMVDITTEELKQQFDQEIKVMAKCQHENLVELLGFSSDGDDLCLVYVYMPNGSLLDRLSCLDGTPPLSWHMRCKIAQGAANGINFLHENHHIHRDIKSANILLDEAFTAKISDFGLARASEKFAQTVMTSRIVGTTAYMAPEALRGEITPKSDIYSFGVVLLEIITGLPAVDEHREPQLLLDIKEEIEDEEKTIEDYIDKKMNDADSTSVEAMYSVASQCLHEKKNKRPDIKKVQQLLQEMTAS

Regarding `C[C@]1(Nc2ncnc3ccc(C#N)cc23)CC[C@H](N2CCC(O)C2)CC1` (stereo partly drawn) [Example 7-3, 4-{[trans-4-(3-hydroxypyrrolidin-1-yl)-1-methylcyclohexyl]amino} quinazoline-6-carbonitrile], the 50% inhibitory concentration (IC50) stood at 43 nM. In other words, the double-digit nanomolar range.

Turning to `CN(C1CC1)[C@H]1CC[C@H](Nc2ncnc3ccc(C#N)cc23)CC1` [Example 3-32, 4-({trans-4-[cyclopropyl(methyl)amino]cyclohexyl}amino) quinazoline-6-carbonitrile], half-maximal inhibition (IC50) required 15 nM.

With `N#Cc1ccc2ncnc(N[C@H]3CC[C@H](N4CCCC(C(F)(F)F)C4)CC3)c2c1` (single isomer, unassigned) [Example 3-2, 4-({cis or trans-4-[(3R or S)-3-(trifluoromethyl)piperidin-1-yl]cyclohexyl}amino) quinazoline-6-carbonitrile], the midpoint of inhibition, the IC50, lay at 33 nM.

As to `N#Cc1ccc2ncnc(N[C@H]3CC[C@H](N4CCN(C(=O)C5CC5(F)F)CC4)CC3)c2c1` (stereo partly drawn) [Example 6-14, 4-[(trans-4-{4-[(2,2-difluorocyclopropyl)carbonyl]piperazin-1-yl}cyclohexyl)amino] quinazoline-6-carbonitrile], the half-maximal inhibitory concentration (IC50) stood at 13 nM.

`N#Cc1ccc2ncnc(N[C@H]3CC[C@H](N4CCN(C(=O)C5CC(O)C5)CC4)CC3)c2c1` (stereo partly drawn) [Example 6-21, 4-[(trans-4-{4-[(3-hydroxycyclobutyl)carbonyl]piperazin-1-yl}cyclohexyl)amino] quinazoline-6-carbonitrile]: the midpoint of inhibition, the IC50, lay at 10 nM. This IC50 and that of the compound before are within 1.5-fold of each other.

The compound `N#Cc1ccc2ncnc(N[C@H]3CC[C@H](N4CCN(C(=O)[C@H]5CCCO5)CC4)CC3)c2c1` [Example 6-23, 4-[(trans-4-{4-[(2R)-tetrahydrofuran-2-ylcarbonyl]piperazin-1-yl}cyclohexyl)amino] quinazoline-6-carbonitrile] gave an IC50 of 17 nM. Compared with the last compound, the IC50 is about 1.7-fold higher.

Regarding `N#Cc1ccc2ncnc(N[C@H]3CC[C@H](NC4CC4)CC3)c2c1` [Example 3-23, 4-{[trans-4-(cyclopropylamino)cyclo-hexyl]amino}quinazoline-6-carbonitrile], the IC50 worked out at 26 nM. Compared with the last compound, the IC50 is about 1.5-fold higher.

For the compound `N#Cc1ccc2ncnc(N[C@H]3CC[C@H](N4CCOC5CCCC54)CC3)c2c1` (stereo partly drawn) [Example 3-24, 4-({trans-4-[(4aS,7aS or 4aR,7aR)-hexahydrocyclopenta[b] [1,4]oxazin-4(4aH)-yl]cyclohexyl}amino) quinazoline-6-carbonitrile], it took 11 nM to reach half-maximal inhibition (IC50).

Take `N#Cc1ccc2ncnc(N[C@H]3CC[C@H](N4CCC(CN5CCOCC5)CC4)CC3)c2c1` [Example 3-43, 4-({trans-4-[4-(mopholin-4-ylmethyl)piperidin-1-yl]cyclohexyl}amino) quinazoline-6-carbonitrile]: inhibition was half-maximal at 9 nM (IC50).

`N#Cc1ccc2ncnc(N[C@H]3CC[C@H](N4CCN(C(=O)C5CC5)CC4)CC3)c2c1` [Example 6-1, 4-({Trans-4-[4-(cyclopropylcarbonyl)piperazin-1-yl]cyclohexyl}amino)quinazoline-6-carbonitrile] returned an IC50 of 3 nM.

On to `N#Cc1ccc2ncnc(N[C@H]3CC[C@H](N4CCC5OCCC54)CC3)c2c1` (stereo partly drawn) [Example 3-39, 4-{[trans-4-(hexahydro-4H-furo[3,2-b]pyrrol-4-yl)cyclohexyl]amino} quinazoline-6-carbonitrile], for which the IC50 is 174 nM. Compared with the last compound, the IC50 is about 58-fold higher.

In turn, `CC1CN([C@H]2CC[C@H](Nc3ncnc4ccc(C#N)cc34)CC2)CC(C)O1` (single isomer, unassigned) [Example 3-14, 4-({trans-4-[(2S,6S or 2R,6R)-2,6-dimethylmorpholin-4-yl]cyclohexyl}amino) quinazoline-6-carbonitrile] displayed an IC50 of 33 nM.

`C[C@H]1COCCN1[C@H]1CC[C@H](Nc2ncnc3ccc(C#N)cc23)CC1` [Example 3-28, 4-({trans-4-[(3S)-3-methylmorpholin-4-yl]cyclohexyl}amino) quinazolin-6-carbonitrile]: it took 47 nM to reach half-maximal inhibition (IC50).

`N#Cc1ccc2ncnc(NC3CCC(N4CCCC(C(F)(F)F)C4)CC3)c2c1` (single isomer, unassigned) [Example 3-5, 4-({cis or trans-4-[(3R or S)-3-(trifluoromethyl)piperidin-1-yl]cyclohexyl}amino) quinazoline-6-carbonitrile] displayed a concentration for half-maximal inhibition (IC50) of 908 nM.

Regarding `COc1ccc2ncnc(N[C@H]3CC[C@H](N4CCOCC4)CC3)c2c1` [Example 2-8, 6-methoxy-N-[trans-4-(morpholin-4-yl)cyclohexyl]quinazolin-4-amine], the 50% inhibitory concentration (IC50) turned out to be 16 nM. This IC50 lies about 57-fold lower than the previous one.

Consider `CC(=O)N1CCN([C@H]2CC[C@H](Nc3ncnc4ccc(C#N)cc34)CC2)CC1` [Example 6-2, 4-{[trans-4-(4-acetylpiperazin-1-yl)cyclohexyl]amino} quinazoline-6-carbonitrile], for which half-maximal inhibition (IC50) required 11 nM.

Regarding `N#Cc1ccc2ncnc(N[C@H]3CC[C@H](N4CC[C@@H](O)C4)CC3)c2c1` [Example 3-38, 4-({trans-4-[(3R)-3-hydroxypyrrolidin-1-yl]cyclohexyl}amino) quinazoline-6-carbonitrile], half-maximal inhibition (IC50) was put at 15 nM.

For the compound `CC(F)(F)C(=O)N1CCN([C@H]2CC[C@H](Nc3ncnc4ccc(C#N)cc34)CC2)CC1` [Example 6-6, 4-({trans-4-[4-(2,2-difluoropropanoyl)piperazin-1-yl]cyclohexyl}amino) quinazoline-6-carbonitrile], the half-maximal inhibitory concentration (IC50) stood at 16 nM.

`CS(=O)(=O)C1CCN([C@H]2CC[C@H](Nc3ncnc4ccc(C#N)cc34)CC2)CC1` [Example 3-10, 4-({trans-4-[4-(methylsulfonyl)piperidin-1-yl]cyclohexyl}amino) quinazoline-6-carbonitrile] registered an IC50 of 11 nM.

In the case of `N#Cc1ccc2ncnc(N[C@H]3CC[C@H](N4CCN(C(=O)CC5COC5)CC4)CC3)c2c1` [Example 6-18, 4-({trans-4-[4-(oxetan-3-ylacetyl)piperazin-1-yl]cyclohexyl}amino) quinazoline-6-carbonitrile], the midpoint of inhibition, the IC50, lay at 10 nM.

`N#Cc1ccc2ncnc(N[C@H]3CC[C@H](N4CCCC(F)(F)C4)CC3)c2c1` [Example 3-33, 4-{[trans-4-(3,3-difluoropiperidin-1-yl)cyclohexyl]amino} quinazoline-6-carbonitrile] displayed an IC50 of 132 nM. This IC50 lies about 13-fold higher than the previous one.

For `N#Cc1ccc2ncnc(N[C@H]3CC[C@H](N4CCN(C(=O)[C@@H]5CCCO5)CC4)CC3)c2c1` [Example 6-11, 4-[(trans-4-{4-[(2S)-tetrahydrofuran-2-ylcarbonyl]piperazin-1-yl}cyclohexyl)amino] quinazoline-6-carbonitrile], the IC50 came to 11 nM.

`N#Cc1ccc2ncnc(N[C@H]3CC[C@@H](N4CCC4)CC3)c2c1` [Example 3-6, 4-{[cis-4-(azetidin-1-yl)cyclohexyl]amino} quinazoline-6-carbonitrile] yielded an IC50 of 768 nM.

For `N#Cc1ccc2ncnc(N[C@H]3CC[C@H](N4CCCC(F)(F)CC4)CC3)c2c1` [Example 3-53, 4-{[trans-4-(4,4-difluoroazepan-1-yl)cyclohexyl]amino} quinazoline-6-carbonitrile], the IC50 worked out at 12 nM.

In the case of `Clc1ccc2ncnc(N[C@H]3CC[C@H](N4CCOCC4)CC3)c2c1` [Example 2-13, 6-chloro-N-[trans-4-(morpholin-4-yl)cyclohexyl]quinazolin-4-amine], half-maximal inhibition (IC50) required 6 nM.

`N#Cc1ccc2ncnc(N[C@H]3CC[C@H](N4CCN(C(=O)C5CCC5)CC4)CC3)c2c1` [Example 6-15, 4-({trans-4-[4-(cyclobutylcarbonyl)piperazin-1-yl]cyclohexyl}amino) quinazoline-6-carbonitrile] had a half-inhibitory concentration (IC50) of 10 nM.

For `N#Cc1ccc2ncnc(N[C@H]3CC[C@H](N4CCN(C(=O)C(F)F)CC4)CC3)c2c1` [Example 6-12, 4-({trans-4-[4-(difluoroacetyl)piperazin-1-yl]cyclohexyl}amino) quinazoline-6-carbonitrile], the IC50 worked out at 27 nM.

In turn, `N#Cc1ccc2ncnc(N[C@H]3CC[C@H](N4CCCC(CN5CCOCC5)C4)CC3)c2c1` (stereo partly drawn) [Example 3-46, 4-({trans-4-[3-(morpholin-4-ylmethyl)piperidin-1-yl]cyclohexyl}amino) quinazoline-6-carbonitrile] came in with an IC50 of 7 nM.

Compound `CC(C)Oc1ccc2ncnc(N[C@H]3CC[C@H](N4CCOCC4)CC3)c2c1` [Example 2-10, N-[trans-4-(morpholin-4-yl)cyclohexyl]-6-(propan-2-yloxy)quinazolin-4-amine] had a half-maximal inhibitory concentration (IC50) of 82 nM. This IC50 is about 12-fold higher than that of the compound before.

`N#Cc1ccc2ncnc(N[C@H]3CC[C@H](N4CCOCC4)CC3)c2c1` [Example 2-7, 4-{[trans-4-(morpholin-4-yl)cyclohexyl]amino} quinazoline-6-carbonitrile] displayed a 50% inhibitory concentration (IC50) of 6 nM. This IC50 is about 14-fold lower than that of the compound before.

With `CO[C@@H]1CCN([C@H]2CC[C@H](Nc3ncnc4ccc(C#N)cc34)CC2)C1` [Example 3-40, 4-({trans-4-[(3R)-3-methoxypyrrolidin-1-yl]cyclohexyl}amino) quinazoline-6-carbonitrile], the IC50 worked out at 51 nM.

Compound `CC1(O)CCN([C@H]2CC[C@H](Nc3ncnc4ccc(C#N)cc34)CC2)C1` (stereo partly drawn) [Example 3-36, 4-{[trans-4-(3-hydroxy-3-methylpyrrolidin-1-yl)cyclohexyl]amino} quinazoline-6-carbonitrile] gave an IC50 of 25 nM.

On to `N#Cc1ccc2ncnc(N[C@H]3CC[C@H](N4CC[C@H](O)C4)CC3)c2c1` [Example 3-34, 4-({trans-4-[(3S)-3-hydroxypyrrolidin-1-yl]cyclohexyl}amino) quinazoline-6-carbonitrile], for which the IC50 amounted to 33 nM.
